Source: US5925549A, “Soluble 7-transmembrane domain G-protein-coupled receptor compositions and methods” (The Board of Trustees of the Leland Stanford Junior …, priority 1997, dated 1999)

Tests used:
rat testis cells = assay: Testis cell apoptosis, DNA fragmentation by 3' end-labeling and in situ analysis (Apotag kit); type: in vivo; settings: immature male rats; GnRH antagonist 50 μg/rat; 2 days; FIG. 5C; comparable to FBP-treated group
Protocol: (§1) Two days after the initial injection, the testis were weighed and testis cell apoptosis was quantitated using a 3' end-labeling method (Tapanainen,et al., 1993). The effects of FBP were also assayed using in situ analysis of specific cell types undergoing apoptosis with the "APOTAG" kit (Oncor, Gaithersburg, Md.) as previously described (Billig, et al., 1995).
(§2) Some animals were treated with a potent gonadotropin releasing hormone (GnRH) antagonist (Org30850: Acetyl-D-parachloro-Phe (AcDpCl-Phe), D-parachloro-Phe (DpCl-Phe), D-Bal, DLys, DAla-amide; (AcDpCl)Phe1 - (DpCl)Phe2 - D-Bal3 - DLys6 -DAla10(amide) (SEQ ID NO:5; D refers to D (not L) amino acids); 50 μg/rat, FIG. 5C (ANT); Decker, et al., 1992) to suppress pituitary release of LH and FSH (Decker, et al., 1992) whereas others were treated with conditioned media of SF9 cells infected with wild type baculovirus. In situ analysis of specific cell types undergoing apoptosis was performed using Apotag kit (Oncor, Gaithersburg, MD) as previously described (Billig, et al., 1995). Animal care was in accordance with institutional guidelines.

[1] = test system: immature male rats (testis growth); assay: Testis weight in immature male rats after 2 days of treatment; type: in vivo; settings: 21 days of age, GnRH antagonist 50 μg/rat, testes weighed two days after initial injection, untreated 192±28 mg
Protocol: Immature male rats (21 days of age, weighing between about 45 and 50 g) were injected subcutaneously (s.c.) every 6h for a period of 2 days with 1 ml conditioned media of SF9 cells (10^8 cells equivalent/injection) containing solubilized FSH receptor fragments prepared as described above. The concentration of soluble receptor protein in the injection volume was between about 30 and 100 μg/ml. The effective dose administered every 6 hours was therefore between […].
as §1
as §2, with “In situ analysis of specific cell types undergoing apoptosis was performed using Apotag kit (Oncor, Gaithersburg, MD) as previously described (Billig, et al., 1995). Animal care was in accordance with institutional guidelines.” left out

Q: For “Acetyl-D-parachloro-Phe (AcDpCl-Phe), D-parachloro-Phe (DpCl-Phe), D-Bal, DLys, DAla-amide; (AcDpCl)Phe1 - (DpCl)Phe2 - D-Bal3 - DLys6 -DAla10(amide) [ANT]”, which “apoptotic DNA fragmentation in testis cells” value (rat testis cells) is on record?
A: Its value is “increases in apoptotic DNA fragmentation”.

Q: And the testis weight [1]?
A: The testis weight was 140 ± 18 mg.
